Measurements reported in patent US5843889A, “Glycopeptide antibiotic derivatives” (Eli Lilly and Company, priority 1997, dated 1998).
In brackets after ≈: the same amount, converted by molar mass.

What was measured:
Assay in all cases: MIC, standard broth micro-dilution assay
Format in all cases: cell-based
[1] = test system: Entercoccus faecalis 2041
Method: (§1) The formula I compounds have in vitro and in vivo activity against Gram-positive pathogenic bacteria. The MIC's were determined using a standard broth micro-dilution assay.

[2] = test system: Entercoccus faecalis 276
Method: as §1

[3] = test system: Entercoccus gallinarum 245
Method: as §1

Structure (SMILES)	MIC [1]	MIC [2]	MIC [3]
CNC(CC(C)C)C(=O)NC1C(=O)NC(CC(N)=O)C(=O)NC2C(=O)NC3C(=O)NC(C(=O)NC(C(=O)O)c4cc(O)cc(O)c4-c4cc3ccc4O)C(OC3CC(C)(N)C(O)C(C)O3)c3ccc(c(Cl)c3)Oc3cc2cc(c3OC2OC(CO)C(O)C(O)C2OC2CC(C)(NCc3ccc(Oc4ccc(Cl)c(Cl)c4)cc3)C(O)C(C)O2)Oc2ccc(cc2Cl)C1O (stereo not drawn) [Compound 81, 4-[3,4-dichlorophenoxy]benzyl]	≤ 0.06 µg/mL	≤ 0.06 µg/mL	0.25 µg/mL (≈ 0.136 µM)
CNC(CC(C)C)C(=O)NC1C(=O)NC(CC(N)=O)C(=O)NC2C(=O)NC3C(=O)NC(C(=O)NC(C(=O)O)c4cc(O)cc(O)c4-c4cc3ccc4O)C(OC3CC(C)(N)C(O)C(C)O3)c3ccc(c(Cl)c3)Oc3cc2cc(c3OC2OC(CO)C(O)C(O)C2OC2CC(C)(NCc3cccc(Oc4ccc(Cl)cc4)c3)C(O)C(C)O2)Oc2ccc(cc2Cl)C1O (stereo not drawn) [Compound 86]	≤ 0.06 µg/mL	≤ 0.06 µg/mL	1 µg/mL (≈ 0.553 µM)
CNC(CC(C)C)C(=O)NC1C(=O)NC(CC(N)=O)C(=O)NC2C(=O)NC3C(=O)NC(C(=O)NC(C(=O)O)c4cc(O)cc(O)c4-c4cc3ccc4O)C(OC3CC(C)(N)C(O)C(C)O3)c3ccc(c(Cl)c3)Oc3cc2cc(c3OC2OC(CO)C(O)C(O)C2OC2CC(C)(NCc3ccc(Oc4cccc(Cl)c4)c([N+](=O)[O-])c3)C(O)C(C)O2)Oc2ccc(cc2Cl)C1O (stereo not drawn) [Compound 87, 4-[3-chlorophenoxy]-3-nitrobenzyl]	≤ 0.06 µg/mL	≤ 0.06 µg/mL	2 µg/mL (≈ 1.08 µM)
CNC(CC(C)C)C(=O)NC1C(=O)NC(CC(N)=O)C(=O)NC2C(=O)NC3C(=O)NC(C(=O)NC(C(=O)O)c4cc(O)cc(O)c4-c4cc3ccc4O)C(OC3CC(C)(N)C(O)C(C)O3)c3ccc(c(Cl)c3)Oc3cc2cc(c3OC2OC(CO)C(O)C(O)C2OC2CC(C)(NCc3ccc(Oc4ccccc4Cl)c([N+](=O)[O-])c3)C(O)C(C)O2)Oc2ccc(cc2Cl)C1O (stereo not drawn) [Compound 88, 4-[2-chlorophenoxy]-3-nitrobenzyl]	≤ 0.06 µg/mL	≤ 0.06 µg/mL	≤ 0.06 µg/mL
CNC(CC(C)C)C(=O)NC1C(=O)NC(CC(N)=O)C(=O)NC2C(=O)NC3C(=O)NC(C(=O)NC(C(=O)O)c4cc(O)cc(O)c4-c4cc3ccc4O)C(OC3CC(C)(N)C(O)C(C)O3)c3ccc(c(Cl)c3)Oc3cc2cc(c3OC2OC(CO)C(O)C(O)C2OC2CC(C)(NCc3cc(C)cc(C)c3)C(O)C(C)O2)Oc2ccc(cc2Cl)C1O (stereo not drawn) [Compound 89, 3,5-dimethylbenzyl]	≤ 0.06 µg/mL	≤ 0.06 µg/mL	≤ 0.06 µg/mL
CN[C@H](CC(C)C)C(=O)N[C@H]1C(=O)N[C@@H](CC(N)=O)C(=O)N[C@H]2C(=O)N[C@H]3C(=O)N[C@H](C(=O)N[C@H](C(=O)O)c4cc(O)cc(O)c4-c4cc3ccc4O)[C@H](O[C@H]3C[C@](C)(N)[C@@H](O)[C@H](C)O3)c3ccc(c(Cl)c3)Oc3cc2cc(c3O[C@@H]2O[C@H](CO)[C@@H](O)[C@H](O)[C@H]2O[C@H]2C[C@](C)(NCc3cccc(-c4ccccc4)c3)[C@@H](O)[C@H](C)O2)Oc2ccc(cc2Cl)[C@H]1O [Compound 91, 3-phenylbenzyl]	≤ 0.06 µg/mL	≤ 0.06 µg/mL	2 µg/mL (≈ 1.14 µM)
CN[C@H](CC(C)C)C(=O)N[C@H]1C(=O)N[C@@H](CC(N)=O)C(=O)N[C@H]2C(=O)N[C@H]3C(=O)N[C@H](C(=O)N[C@H](C(=O)O)c4cc(O)cc(O)c4-c4cc3ccc4O)[C@H](O[C@H]3C[C@](C)(N)[C@@H](O)[C@H](C)O3)c3ccc(c(Cl)c3)Oc3cc2cc(c3O[C@@H]2O[C@H](CO)[C@@H](O)[C@H](O)[C@H]2O[C@H]2C[C@](C)(NCc3ccc(Oc4ccc(C(C)(C)C)cc4)cc3)[C@@H](O)[C@H](C)O2)Oc2ccc(cc2Cl)[C@H]1O [Compound 96, 4-[4-t-butylphenoxy]benzyl]	1 µg/mL (≈ 0.546 µM)	0.5 µg/mL (≈ 0.273 µM)	2 µg/mL (≈ 1.09 µM)
CN[C@H](CC(C)C)C(=O)N[C@H]1C(=O)N[C@@H](CC(N)=O)C(=O)N[C@H]2C(=O)N[C@H]3C(=O)N[C@H](C(=O)N[C@H](C(=O)O)c4cc(O)cc(O)c4-c4cc3ccc4O)[C@H](O[C@H]3C[C@](C)(N)[C@@H](O)[C@H](C)O3)c3ccc(c(Cl)c3)Oc3cc2cc(c3O[C@@H]2O[C@H](CO)[C@@H](O)[C@H](O)[C@H]2O[C@H]2C[C@](C)(NCc3ccc(-c4ccc(C)cc4)cc3)[C@@H](O)[C@H](C)O2)Oc2ccc(cc2Cl)[C@H]1O [Compound 97, 4-[4-methylphenyl]benzyl]	≤ 0.06 µg/mL	≤ 0.06 µg/mL	2 µg/mL (≈ 1.13 µM)
CNC(CC(C)C)C(=O)NC1C(=O)NC(CC(N)=O)C(=O)NC2C(=O)NC3C(=O)NC(C(=O)NC(C(=O)O)c4cc(O)cc(O)c4-c4cc3ccc4O)C(OC3CC(C)(N)C(O)C(C)O3)c3ccc(c(Cl)c3)Oc3cc2cc(c3OC2OC(CO)C(O)C(O)C2OC2CC(C)(NCc3ccc(-c4ccccc4[N+](=O)[O-])cc3)C(O)C(C)O2)Oc2ccc(cc2Cl)C1O (stereo not drawn) [Compound 102, 4-[2-nitrophenyl]benzyl]	≤ 0.06 µg/mL	0.25 µg/mL (≈ 0.139 µM)	4 µg/mL (≈ 2.22 µM)
CNC(CC(C)C)C(=O)NC1C(=O)NC(CC(N)=O)C(=O)NC2C(=O)NC3C(=O)NC(C(=O)NC(C(=O)O)c4cc(O)cc(O)c4-c4cc3ccc4O)C(OC3CC(C)(N)C(O)C(C)O3)c3ccc(c(Cl)c3)Oc3cc2cc(c3OC2OC(CO)C(O)C(O)C2OC2CC(C)(NCc3ccc4c(c3O)Cc3ccccc3-4)C(O)C(C)O2)Oc2ccc(cc2Cl)C1O (stereo not drawn) [Compound 103, 2-[1-hydroxy]fluorenylmethyl]	≤ 0.06 µg/mL	0.25 µg/mL (≈ 0.14 µM)	8 µg/mL (≈ 4.48 µM)
CNC(CC(C)C)C(=O)NC1C(=O)NC(CC(N)=O)C(=O)NC2C(=O)NC3C(=O)NC(C(=O)NC(C(=O)O)c4cc(O)cc(O)c4-c4cc3ccc4O)C(OC3CC(C)(N)C(O)C(C)O3)c3ccc(c(Cl)c3)Oc3cc2cc(c3OC2OC(CO)C(O)C(O)C2OC2CC(C)(NCc3ccc(Cc4ccccc4)c(OC)c3)C(O)C(C)O2)Oc2ccc(cc2Cl)C1O (stereo not drawn) [Compound 104, 4-benzyl-3-methoxybenzyl]	≤ 0.06 µg/mL	≤ 0.06 µg/mL	2 µg/mL (≈ 1.11 µM)
CCCc1ccc(-c2ccc(CNC3(C)CC(OC4C(Oc5c6cc7cc5Oc5ccc(cc5Cl)C(OC5CC(C)(N)C(O)C(C)O5)C5NC(=O)C(NC(=O)C7NC(=O)C(CC(N)=O)NC(=O)C(NC(=O)C(CC(C)C)NC)C(O)c7ccc(c(Cl)c7)O6)c6ccc(O)c(c6)-c6c(O)cc(O)cc6C(C(=O)O)NC5=O)OC(CO)C(O)C4O)OC(C)C3O)cc2)cc1 (stereo not drawn) [Compound 107, 4-[4-propylphenyl]benzyl]	0.5 µg/mL (≈ 0.278 µM)	1 µg/mL (≈ 0.555 µM)	2 µg/mL (≈ 1.11 µM)
CNC(CC(C)C)C(=O)NC1C(=O)NC(CC(N)=O)C(=O)NC2C(=O)NC3C(=O)NC(C(=O)NC(C(=O)O)c4cc(O)cc(O)c4-c4cc3ccc4O)C(OC3CC(C)(N)C(O)C(C)O3)c3ccc(c(Cl)c3)Oc3cc2cc(c3OC2OC(CO)C(O)C(O)C2OC2CC(C)(NCc3ccc(OC(F)(F)C(F)F)cc3)C(O)C(C)O2)Oc2ccc(cc2Cl)C1O (stereo not drawn) [Compound 121, 4-[1,1,2,2-tetrafluoroethoxy]benzyl]	≤ 0.06 µg/mL	≤ 0.06 µg/mL	2 µg/mL (≈ 1.11 µM)
